In patent US9402912B2, “Antibiotic conjugates directly linked with steroid drugs” (Allergan, Inc., priority 2013, dated 2016):

What was measured:
[1] = Ocular pharmacokinetics following a single topical ophthalmic administration in rabbits; type: in vivo, New Zealand White Rabbits; conditions: single topical ocular dose of 0.4% (w/v) solution; cornea, aqueous humor, conjunctiva, eyelid margin; FIG. 2
Description: Rabbits were dosed once by ocular instillation to both eyes with each compound formulated in a 0.4% (w/v) solution. At 0.25, 0.5, 1, 2, 6, and 10 hours post dose cornea, aqueous humor, conjunctiva and eyelid margin were collected and stored at approximately −70° C. until bioanalysis. Ocular tissue samples were analyzed by liquid chromatography with mass spectrometry (LC-MS/MS) detection to determine the parent (i.e., ester linked hybrids) and metabolite (i.e. steroid and antibiotic) concentrations resulting from the metabolism of ester linked hybrids. Internal standards were used to compensate for variability from sample processing, chromatographic elution, mass spectrometer response and ion suppression by matrix components.

[2] = type: in vitro ADME, Dutch Belted rabbits; conditions: Dutch Belted, rabbit, 1 μM, pH 6
Description: Dutch Belted rabbits were euthanized with an overdose of sodium pentobarbital. The corneas were collected and homogenized in ice-cold potassium chloride solution (pH=7.4). The homogenate was centrifuged at 755×g for 30 min at 4° C. and aliquots of the supernatant were stored at or below −70° C. until metabolism experiments were conducted. Prior to storing the homogenates an aliquot was removed for determination of protein concentrations by calculating the 260 nm absorbance using a spectrophotometer. Human recombinant carboxylesterases were purchased from a commercial vendor (BD Gentest™, Bedford, Mass.)
All metabolic stability experiments were performed in triplicate in 96-well plate format. The final incubation mixture contained 1 μM test compound, 0.3 mg/mL corneal protein homogenate or 0.1 mg/mL human recombinant carboxylesterase mixture in a final volume of 0.5 mL 0.1M potassium phosphate buffer (pH=6.0). The final percentage of solvent in the incubation was less than 1.0% to prevent inhibition of enzymatic activity. Following a pre-incubation at 37° C., test article was added to initiate the reaction. At designated time points (typically less than 60 minutes to capture the linear range of metabolite formation), 0.05 mL aliquots were removed from the incubation mixtures using a clean pipet tip and immediately placed in organic solvent to stop any esterase activity. The hydrolysis to the metabolites was confirmed to be due to esterase activity and not chemical lability.
The samples were analyzed by liquid chromatography with mass spectrometry (LC-MS/MS) detection to determine the metabolite concentrations resulting from the metabolism of the hybrid compounds. Internal standards were used to compensate for variability from sample processing, chromatographic elution, mass spectrometer response and ion suppression by matrix components.

| SMILES | uptake into ocular tissues and cleavage to Prednisolone and Gatifloxacin (AUC0-10hr) [1] | Rate of formation Metabolite 1 (Prednisolone) [2] | Rate of formation Metabolite 2 (Gatifloxacin) [2] | Rate of formation Metabolite 1 (Betamethasone) [2] | Rate of formation Metabolite 1 (Dexamethasone) [2] |
| --- | --- | --- | --- | --- | --- |
| COc1c(N2CCNC(C)C2)c(F)cc2c(=O)c(C(=O)OCC(=O)[C@]3(O)CC[C@@H]4[C@H]5CCC6=CC(=O)C=C[C@@]6(C)[C@@H]5[C@H](O)C[C@]43C)cn(C3CC3)c12 (relative stereo) [Compound 12, 2-[(8R,9R,10S,11R,13R,14R,17S)-11,17-dihydroxy-10,13-dimethyl-3-oxo-6,7,8,9,10,11,12,13,14,15,16,17-dodecahydro-3H-cyclopenta[a]phenanthren-17-yl]-2-oxoethyl rel-1-cyclopropyl-6-fluoro-8-methoxy-7-(3-methylpiperazin-1-yl)-4-oxo-1,4-dihydroquinoline-3-carboxylate] | taken up into rabbit ocular tissues and enzymatically hydrolyzed to the individual antibiotic and steroid | 6.02 ± 0.63 nM/min/mg | 3.46 ± 0.50 nM/min/mg | – | – |
| COc1c(N2CCNC(C)C2)c(F)cc2c(=O)c(C(=O)OCC(=O)[C@]3(O)[C@H](C)C[C@@H]4[C@H]5CCC6=CC(=O)C=C[C@@]6(C)[C@]5(F)[C@H](O)C[C@]43C)cn(C3CC3)c12 (relative stereo) [Compound 1, 2-[(8R,9S,10R,11R,13R,14R,16R,17S)-9-fluoro-11,17-dihydroxy-10,13,16-trimethyl-3-oxo-6,7,8,9,10,11,12,13,14,15,16,17-dodecahydro-3H-cyclopenta[a]phenanthren-17-yl]-2-oxoethyl rel-1-cyclopropyl-6-fluoro-8-methoxy-7-(3-methylpiperazin-1-yl)-4-oxo-1,4-dihydroquinoline-3-carboxylate] | – | – | 4.45 ± 0.28 nM/min/mg | 7.27 ± 0.58 nM/min/mg | – |
| COc1c(N2CCNC(C)C2)c(F)cc2c(=O)c(C(=O)OCC(=O)[C@]3(O)[C@@H](C)C[C@@H]4[C@H]5CCC6=CC(=O)C=C[C@@]6(C)[C@]5(F)[C@H](O)C[C@]43C)cn(C3CC3)c12 (relative stereo) [Compound 7, 2-[(8R,9S,10R,11R,13R,14R,16S,17S)-9-fluoro-11,17-dihydroxy-10,13,16-trimethyl-3-oxo-6,7,8,9,10,11,12,13,14,15,16,17-dodecahydro-3H-cyclopenta[a]phenanthren-17-yl]-2-oxoethyl rel-1-cyclopropyl-6-fluoro-8-methoxy-7-(3-methylpiperazin-1-yl)-4-oxo-1,4-dihydroquinoline-3-carboxylate] | – | – | 4.93 ± 0.48 nM/min/mg | – | 7.31 ± 0.62 nM/min/mg |
